Columns and labels:
CHO-K1 cells = test: Micronucleus assay (MNT) in vitro; type: cell-based; set-up: key: A: negative, putative negative (micronuclei detected beyond threshold of 60% cyctotoxicity); B: positive; details: 24 hrs treatment, 0.2 μM to 100 μM
Protocol: The in vitro MNT assay is performed in CHO-K1 cells due to their stable and well-characterized karyotype, high sensitivity and suitability for a high content imaging approach. They have a basal spontaneous micronucleus frequency of 3-4%.
24 hrs after plating CHO-K1 cells are treated with test compounds for 24 hrs (in duplicates; fixed concentration ranges from 0.2 μM to 100 μM in 2-fold dilution steps). After a medium change cells are incubated for 24 hrs with Cytochalasin B to block cytokinesis and are then fixed and nuclei/micronuclei visualized with a DNA stain. Images are acquired with the Molecular Devices high content imagers IXU or IXM and are analyzed with the dedicated MetaXpress software micronucleus module. Criteria for scoring of micronuclei (MN) are the following: • diameter of the MN should be less than ⅓ of the main nucleus • MN should be separated from or marginally overlap with main nucleus (=no blebs) • MN should have similar staining as the main nucleus
At least 1000 binucleated cells are evaluated per treatment replicate. Mitomycin C is used as reference stimulator of micronucleus formation. Cytotoxicity is evaluated in parallel and defined by comparing total nuclei count in compound-treated samples to neutral control samples treated with vehicle only (1% DMSO) (100% cytotoxicity means all cells are dead or lost).
A test compound is regarded as POSITIVE if generation of micronuclei and exhibition of less than 60% cytotoxicity at the same concentration can be observed.
Compounds are scored only in the soluble concentration range.
Experimental data of the compounds shown in Table 1 in the MNT assay are shown in Table 2 below and classified in the following groups: […]

ACSS2 = ACSS2 (Homo sapiens (Human), UniProt Q9NR19); test: Cellular assay of 14C acetate incorporation into histones (IC50 ACSS2 cellular histone); type: cell-based; details: HCT-15 cells
Source text: Cellular Assay of ^14C Acetate Incorporation into Histones (IC50 ACSS2 Cellular Histone)
This protocol describes a cellular assay capable to quantify endogenous histone acetylation activity in the human HCT-15 cancer cell line following the incorporation of extracellularly administered radiolabeled ^14C acetate with a scintillation based read out on acid extracted histones.
HCT-15 cells are trypsinized, washed and suspended in DMEM culture medium supplemented with penicillin/streptomycin (100 U/mL), sodium pyruvate (1 mM), and 10% FBS
Compounds serial dilutions are prepared in 96-well V-bottom microplate from 10 mM stock solutions in DMSO. From these dilutions 0.5 μl are transferred to a fresh plate including pure DMSO as negative control. The dilutions are prepared such, that the final concentration in the assay is 1/400 of the concentration in the serial dilution. The final DMSO concentration in the assay is 0.25%.
The cell suspension is seeded at densities of 2×10^5 cells per 170 μl into individual wells of a 96 well plate each containing 0.5 μl aliquots of compound serial dilutions and are kept for 1 h in a cell incubator. To each well 30 μL of a mixture containing 0.5 mCi/mL of ^14C-acetate with full medium are added. Then, the wells are incubated for 3 hrs in the cell incubator.
Further steps of the procedure should be conducted on ice or instrumentations precooled to 4° C. Cells are sedimented in the 96-well V-bottom microplate by centrifugation (Eppendorf 5804 R) at 1200 rpm for 5 min. The supernatant is removed and the cells are washed twice with 200 μL of PBS-NaB (5 mM sodium butyrate) buffer by iterative resuspension and centrifugation. Finally, the cells are resuspended in 50 μL of TEB (PBS-NaB+0.5% Triton X-100) and left on ice for 10 minutes. After centrifugation at 2300 rpm for 10 minutes at 4° C. the supernatant is removed, the remaining pellet is suspended in 50 μL of 0.2M HCl and incubated over night at 4° C. After incubation the well plate is shaken for 2 minutes in a MTP plate shaker set to 1200 rpm and then centrifuged at 3700 rpm for 10 mins. The lysate is carefully aspirated (˜43 μL) and transferred into a white MTP plate (Greiner bio-one 65509). 90 μL of Ultima Gold XR scintillation cocktail are added and the plates are sealed with a transparent cover tape before mixing vigorously using plate shaker set to 1200 rpm. Radioactivity from ^14C incorporation in the wells is measured as CPM count in a MicroBeta Trilux luminescence counter.

human rec ACSS2 = human rec ACSS2 (Homo sapiens (Human), UniProt Q9NR19); test: Biochemical activity ACSS2 assay (AMP-Glo); details: human recombinant ACSS2, AMP-Glo, 180 min at 37° C.
Source text: Biochemical Activity ACSS2 Assay (IC50 ACSS2 Biochemical)
The biochemical activity assay for ACSS2 is based on the detection of released AMP by AMP-Glo™ Assay kit (Promega, Madison). The assay is run in three steps: the enzymatic reaction in which human rec ACSS2 activates acetate with ATP and Coenzyme A as cosubstrates to acetyl-CoA thereby releasing AMP and the detection reaction of AMP by AMP Glo assay in which after the destruction of the residual ATP with AMP Glo reagent 1 produced AMP is converted to ATP that is measured in a luciferase assay system (detection reagent). The ACSS2 activity correlates with the detected luminescence signal.
The assay was performed in Perkin Elmer 384 well white Proxiplates in a total volume of 8 μl.
1 nM (fc)C-term myc tagged ACSS2 (human, recombinant, Origene, Rockville, US) and a mixture of 100 μM (fc) ATP, 100 μM (fc) Coenzyme A and 500 μM (fc) sodium acetate were incubated in a total volume of 5 μl (50 mM Hepes, 1 mM Mg-chloride, 150 mM NaCl, 1 mM DTT, 0.01% (w/v) BSA, 0.3% DMSO, pH 7.5) in the absence or presence of the test compound (10 dilution concentrations, start conc 30 μM) for 180 min at 37° C. The reaction was stopped and residual ATP destroyed by the addition of 1 μl AMP Glo reagent solution (Promega, Madison, US). After 1h incubation at room temperature 2 μl of AMP Glo detection reagent was added and the assay was incubated for 0.75 hr at room temperature. The luminescence signal was measured with an Envision multimode reader (Perkin Elmer LAS Germany GmbH) at 700 nm in luminescence mode. The full value used was the inhibitor-free reaction. The pharmacological zero value was generated by addition of ACSS2 inhibitor (Ac-CoA Synthase Inhibitor—CAS 508186-14-9-Calbiochem) in a final concentration of 5 μM. The inhibitory values (IC50) were determined using the program Assay Analyzer® from GeneData.

Chain of ACSS2 (Q9NR19 whole entry): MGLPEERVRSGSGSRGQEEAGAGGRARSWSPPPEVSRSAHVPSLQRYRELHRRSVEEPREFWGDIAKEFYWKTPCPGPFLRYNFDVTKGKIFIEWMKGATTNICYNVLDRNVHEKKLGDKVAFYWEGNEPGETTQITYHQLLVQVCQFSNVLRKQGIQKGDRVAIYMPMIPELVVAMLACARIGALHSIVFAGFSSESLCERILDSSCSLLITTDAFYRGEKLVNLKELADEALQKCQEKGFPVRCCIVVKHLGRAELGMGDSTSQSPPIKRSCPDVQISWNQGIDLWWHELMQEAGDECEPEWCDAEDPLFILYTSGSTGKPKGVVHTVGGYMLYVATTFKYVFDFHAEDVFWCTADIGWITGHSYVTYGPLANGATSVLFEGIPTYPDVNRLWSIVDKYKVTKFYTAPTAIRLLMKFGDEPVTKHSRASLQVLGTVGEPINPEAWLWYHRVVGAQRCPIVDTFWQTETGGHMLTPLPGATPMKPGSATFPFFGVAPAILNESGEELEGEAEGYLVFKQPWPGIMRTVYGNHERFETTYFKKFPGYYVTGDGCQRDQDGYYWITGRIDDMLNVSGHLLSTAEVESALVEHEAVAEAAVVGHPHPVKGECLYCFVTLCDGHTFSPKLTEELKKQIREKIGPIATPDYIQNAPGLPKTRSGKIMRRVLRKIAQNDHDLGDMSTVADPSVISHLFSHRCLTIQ
Chain of human rec ACSS2 (Q9NR19 whole entry): as above

Row | Compound | MNT (CHO-K1 cells) | IC50 (ACSS2) [nM] | IC50 (human rec ACSS2) [nM]
1 | Cc1nc2nc(C(O)(c3ccccc3F)c3ccccc3F)n(C)c2cc1-c1nnn[nH]1 [Compound 55, [1,5-dimethy-6-(1H-1,2,3,4-tetrazol-5-yl)-1H-imidazo[4,5-b]pyridin-2-yl]bis(2-fluorophenyl)methanol] | A | 10 to 100 | 0.01 to 1
2 | CCc1c(C(O)(c2ccccc2)c2ncccn2)nc2cc(OC)c(-c3nnn[nH]3)cn12 (single isomer, unassigned) [Compound 14, [3-Ethyl-7-methoxy-6-(1H-tetrazol-5-yl)-imidazo[1,2-a]pyridin-2-yl]-phenyl-pyrimidin-2-yl-methanol] |  | 100 to 10000 | 10 to 100
3 | CCc1c(C(O)(c2ccccc2)c2ccn(C)n2)nc2cc(OC)c(-c3nnn[nH]3)cn12 (single isomer, unassigned) [Compound 17, [3-Ethyl-7-methoxy-6-(1H-tetrazol-5-yl)-imidazo[1,2-a]pyridin-2-yl]-(1-methyl-1H-pyrazol-3-yl)-phenyl-methanol] |  |  | 100 to 10000
4 | CCc1c(C(O)(c2ccccc2)c2ccccn2)nc2cc(Cl)c(-c3nnn[nH]3)cn12 (single isomer, unassigned) [Compound 7, [7-chloro-3-ethyl-6-(1H-tetrazol-5-yl)imidazo[1,2-a]pyridin-2-yl]-phenyl-(2-pyridyl)methanol] | A |  | 10 to 100
5 | CCn1c(C(O)(c2ccccc2)c2ccncc2)nc2nc(OC)c(-c3nnn[nH]3)cc21 (racemic) [Compound 43, [1-ethyl-5-methoxy-6-(1H-1,2,3,4-tetrazol-5-yl)-1H-imidazo[4,5-b]pyridin-2-yl](phenyl)(pyridin-4-yl)methanol] |  | 100 to 10000 | 10 to 100
6 | CCc1c(C(O)(c2ccccc2)c2ccn(C)n2)nc2cc(OC)c(-c3nnn[nH]3)cn12 (single isomer, unassigned) [Compound 18, [3-Ethyl-7-methoxy-6-(1H-tetrazol-5-yl)-imidazo[1,2-a]pyridin-2-yl]-(1-methyl-1H-pyrazol-3-yl)-phenyl-methanol] |  |  | 10 to 100
7 | CCn1c(C(O)(c2ccccc2)c2nccs2)nc2nc(OC)c(-c3nnn[nH]3)cc21 (single isomer, unassigned) [Compound 32, [1-ethyl-5-methoxy-6-(1H-1,2,3,4-tetrazol-5-yl)-1H-imidazo[4,5-b]pyridin-2-yl](phenyl)(1,3-thiazol-2-yl)methanol] | A |  | 0.01 to 1
8 | COc1nc2nc(C(O)(c3ccccc3)c3ccccc3)n(C)c2cc1-c1nnn[nH]1 [Compound 24, [5-methoxy-1-methyl-6-(1H-1,2,3,4-tetrazol-5-yl)-1H-imidazo[4,5-b]pyridin-2-yl]diphenylmethanol] |  |  | 0.01 to 1
9 | CCc1cc2nc(C(O)(c3ccccc3)c3ccccc3)c(CC)n2cc1-c1nnn[nH]1 [Compound 1, [3,7-diethyl-6-(1 H-1,2,3,4-tetrazol-5-yl)imidazo[1,2-a]pyridin-2-yl]diphenylmethanol] |  |  | 1 to 10
10 | CCn1c(C(O)(c2ccccc2)c2cccnc2)nc2nc(OC)c(-c3nnn[nH]3)cc21 (racemic) [Compound 44, [1-ethyl-5-methoxy-6-(1H-1,2,3,4-tetrazol-5-yl)-1H-imidazo[4,5-b]pyridin-2-yl](phenyl)(pyridin-3-yl)methanol] |  | 100 to 10000 | 10 to 100
11 | CCn1c(C(O)(c2ccccc2)c2ccc(OC(F)F)cc2)nc2nc(OC)c(-c3nnn[nH]3)cc21 (racemic) [Compound 53, [4-(difluoromethoxy)phenyl][1-ethyl-5-methoxy-6-(1H-1,2,3,4-tetrazol-5-yl)-1H-imidazo[4,5-b]pyridin-2-yl]phenylmethanol] |  | 10 to 100 | 1 to 10
12 | CCn1c(C(O)(c2ccccc2C)c2ccccc2C)nc2nc(OC)c(-c3nnn[nH]3)cc21 [Compound 39, [1-ethyl-5-methoxy-6-(1H-1,2,3,4-tetrazol-5-yl)-1H-imidazo[4,5-b]pyridin-2-yl]bis(2-methylphenyl)methanol] |  | 10 to 100 | 10 to 100
13 | CCc1c(C(O)(c2ccccc2)c2ncccn2)nc2cc(OC)c(-c3nnn[nH]3)cn12 (single isomer, unassigned) [Compound 15, [3-Ethyl-7-methoxy-6-(1H-tetrazol-5-yl)-imidazo[1,2-a]pyridin-2-yl]-phenyl-pyrimidin-2-yl-methanol] |  |  | 100 to 10000
14 | CCn1c(C(O)(c2ccccc2F)c2ccc(OC(F)F)cc2F)nc2nc(OC)c(-c3nnn[nH]3)cc21 (racemic) [Compound 54, [4-(difluoromethoxy)-2-fluorophenyl][1-ethyl-5-methoxy-6-(1H-1,2,3,4-tetrazol-5-yl)-1H-imidazo[4,5-b]pyridin-2-yl](2-fluorophenyl)methanol] |  | 1 to 10 | 1 to 10
15 | CCn1c(C(O)(c2ccccc2)c2ccccn2)nc2nc(OC)c(-c3nnn[nH]3)cc21 (single isomer, unassigned) [Compound 41, [1-ethyl-5-methoxy-6-(1H-1,2,3,4-tetrazol-5-yl)-1H-imidazo[4,5-b]pyridin-2-yl](phenyl)(pyridin-2-yl)methanol] |  | 1 to 10 | 10 to 100
16 | [2H]c1c([2H])c([2H])c(C(O)(c2c([2H])c([2H])c([2H])c([2H])c2[2H])c2nc3nc(OC)c(-c4nnn[nH]4)cc3n2CC)c([2H])c1[2H] [Compound 63, [1-ethyl-5-methoxy-6-(1H-1,2,3,4-tetrazol-5-yl)-1H-imidazo[4,5-b]pyridin-2-yl]bis[(2,3,4,5,6-^2H5)phenyl]methanol] |  | 1 to 10 | 0.01 to 1
17 | CCn1c(C(O)(c2ccccc2)c2ccncn2)nc2nc(OC)c(-c3nnn[nH]3)cc21 (racemic) [Compound 25, [1-ethyl-5-methoxy-6-(1H-1,2,3,4-tetrazol-5-yl)-1H-imidazo[4,5-b]pyridin-2-yl](phenyl)(pyrimidin-4-yl)methanol] |  | 1 to 10 | 1 to 10

Reference: patent US20240009175A9, “TETRAZOLE DERIVATIVES” (Merck Patent GmbH, priority 2020, published 2024)
